Measured values: the supplement of paper PMC11061612

Key:
Assay in all cases: combination Emax (second highest fraction inhibited in the dose matrix, 72 h); higher = more inhibition; extreme values may be limits of the assay
LOXIMVI (Melanoma) = tested on: LOXIMVI (Melanoma)
Procedure, shortened: (§1)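 Cell lines grown in DMEM/F12 or RPMI with 10% FBS were plated in 1536-well plates and held 24 hours at 37°C, 5% CO2 before 72 hours of exposure to two-drug dose matrices, with DMSO typically at 0.2%. CellTiter-Glo 2.0 luminescence gave viability, which was converted to inhibition. Vehicle wells were set to 0 and blank wells to 1. Combination Emax is the second-highest inhibition in the matrix, and Bliss excess is the observed combination effect minus the expected EA + EB − EA·EB, where EA and EB are the single-agent effects.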

[1] = tested on: OVCAR-5 (Ovarian Carcinoma)
Procedure, shortened: as §1

[2] = tested on: ESS-1 (Other Solid Carcinomas)
Procedure, shortened: as §1

EW-11 (Ewing's Sarcoma) = tested on: EW-11 (Ewing's Sarcoma)
Procedure, shortened: as §1

[3] = tested on: NCI-H524 (Small Cell Lung Carcinoma)
Procedure, shortened: as §1

[4] = tested on: YAPC (Pancreatic Carcinoma)
Procedure, shortened: as §1

[5] = tested on: BE-13 (T-Lymphoblastic Leukemia)
Procedure, shortened: as §1

GAMG (Glioblastoma) = tested on: GAMG (Glioblastoma)
Procedure, shortened: as §1

[6] = tested on: KYAE-1 (Esophageal Adenocarcinoma)
Procedure, shortened: as §1

[7] = tested on: SAS (Oral Cavity Carcinoma)
Procedure, shortened: as §1

[8] = tested on: LCLC-97TM1 (Non-Small Cell Lung Carcinoma)
Procedure, shortened: as §1

[9] = tested on: ALL-PO (B-Lymphoblastic Leukemia)
Procedure, shortened: as §1

[10] = tested on: L-428 (Hodgkin's Lymphoma)
Procedure, shortened: as §1

[11] = tested on: OV-56 (Ovarian Carcinoma)
Procedure, shortened: as §1

[12] = tested on: HeLa (Cervical Carcinoma)
Procedure, shortened: as §1

[13] = tested on: KMRC-20 (Kidney Carcinoma)
Procedure, shortened: as §1

CAL-72 (Osteosarcoma) = tested on: CAL-72 (Osteosarcoma)
Procedure, shortened: as §1

[14] = tested on: Hs-746T (Gastric Carcinoma)
Procedure, shortened: as §1

BPH-1 (Non-Cancerous) = tested on: BPH-1 (Non-Cancerous)
Procedure, shortened: as §1

BE2-M17 (Neuroblastoma) = tested on: BE2-M17 (Neuroblastoma)
Procedure, shortened: as §1

| Structure (SMILES) | combination Emax (LOXIMVI (Melanoma)) | combination Emax [1] | combination Emax [2] | combination Emax (EW-11 (Ewing's Sarcoma)) | combination Emax [3] | combination Emax [4] | combination Emax [5] | combination Emax (GAMG (Glioblastoma)) | combination Emax [6] | combination Emax [7] | combination Emax [8] | combination Emax [9] | combination Emax [10] | combination Emax [11] | combination Emax [12] | combination Emax [13] | combination Emax (CAL-72 (Osteosarcoma)) | combination Emax [14] | combination Emax (BPH-1 (Non-Cancerous)) | combination Emax (BE2-M17 (Neuroblastoma)) |
| --- | --- | --- | --- | --- | --- | --- | --- | --- | --- | --- | --- | --- | --- | --- | --- | --- | --- | --- | --- | --- |
| CN(CCO)CC[C@H](CSc1ccccc1)Nc1ccc(S(=O)(=O)NC(=O)c2ccc(N3CCC([C@@H](O)c4ccccc4-c4ccc(Cl)cc4)CC3)cc2)cc1S(=O)(=O)C(F)(F)F [AZD4320] + CC(=O)O[C@H]1C(=O)[C@@]2(C)[C@H]([C@H](OC(=O)c3ccccc3)[C@]3(O)C[C@H](OC(=O)[C@H](O)[C@@H](NC(=O)c4ccccc4)c4ccccc4)C(C)=C1C3(C)C)[C@]1(OC(C)=O)CO[C@@H]1C[C@@H]2O [Paclitaxel] (first compound max 1 µM, 7x7, partner max 3 µM) | 0.955 | 0.973 | 1 | 0.927 | 1 | 0.395 | 1 | 1 | 0.587 | 0.971 | – | – | – | – | – | – | – | – | – | – |
| CN(CCO)CC[C@H](CSc1ccccc1)Nc1ccc(S(=O)(=O)NC(=O)c2ccc(N3CCC([C@@H](O)c4ccccc4-c4ccc(Cl)cc4)CC3)cc2)cc1S(=O)(=O)C(F)(F)F [AZD4320] + CCN(CCO)CCCOc1ccc2c(Nc3cc(CC(=O)Nc4cccc(F)c4)[nH]n3)ncnc2c1 [AZD2811] (first compound max 1 µM, 7x7, partner max 1 µM) | 0.443 | – | 0.923 | 0.865 | 0.995 | 0.0932 | 1 | 0.845 | 0.496 | 0.105 | 0.366 | 1 | 0.847 | 0.117 | 0.192 | 0.256 | 0.373 | 0.487 | 0.893 | 0.64 |
| CN(CCO)CC[C@H](CSc1ccccc1)Nc1ccc(S(=O)(=O)NC(=O)c2ccc(N3CCC([C@@H](O)c4ccccc4-c4ccc(Cl)cc4)CC3)cc2)cc1S(=O)(=O)C(F)(F)F [AZD4320] + C[C@@H]1COCCN1C2=NC(=NC(=C2)C3(CC3)[S@](=N)(=O)C)C4=C5C=CNC5=NC=C4 [AZD6738] (first compound max 1 µM, 7x7, partner max 10 µM) | 0.892 | 0.842 | 0.992 | 0.957 | 0.939 | 0.251 | 1 | 0.694 | 0.51 | 0.902 | 0.87 | 1 | 0.956 | 0.836 | 0.717 | 0.721 | 0.932 | 0.782 | 0.441 | 0.93 |
| CN(CCO)CC[C@H](CSc1ccccc1)Nc1ccc(S(=O)(=O)NC(=O)c2ccc(N3CCC([C@@H](O)c4ccccc4-c4ccc(Cl)cc4)CC3)cc2)cc1S(=O)(=O)C(F)(F)F [AZD4320] + C[C@@H](Nc1cc(F)cc(F)c1)c1cc(C(=O)N(C)C)cc2c(=O)cc(N3CCOCC3)oc12 [AZD8186] (first compound max 1 µM, 7x7, partner max 3 µM) | 0.507 | 0.351 | 0.825 | 0.938 | 0.892 | 0.237 | 1 | 0.615 | 0.387 | 0.77 | 0.343 | 1 | 0.748 | 0.277 | 0.359 | 0.381 | 0.487 | 0.677 | 0.733 | 0.722 |
| CN(CCO)CC[C@H](CSc1ccccc1)Nc1ccc(S(=O)(=O)NC(=O)c2ccc(N3CCC([C@@H](O)c4ccccc4-c4ccc(Cl)cc4)CC3)cc2)cc1S(=O)(=O)C(F)(F)F [AZD4320] + Cc1cc2ncnn2cc1Nc1ncc2c(n1)n(C1CCOCC1)c(=O)n2C [AZD7648] (first compound max 1 µM, 7x7, partner max 10 µM) | 0.343 | 0.17 | 0.502 | 0.829 | 0.822 | 0.103 | 0.981 | 0.286 | 0.279 | 0.118 | 0.203 | 0.992 | 0.844 | 0.149 | 0.0576 | 0.157 | 0.382 | 0.347 | 0.373 | 0.369 |
| COc1nnc2ccc(N3CCC(c4ccc(OCCN5CCN(C)C(=O)[C@H]5C)cc4)CC3)nn12 [AZD5153] + CN(CC[C@H](CSC1=CC=CC=C1)NC2=C(C=C(C=C2)S(=O)(=O)NC(=O)C3=CC=C(C=C3)N4CCC(CC4)[C@H](C5=CC=CC=C5C6=CC=C(C=C6)Cl)O)S(=O)(=O)C(F)(F)F)CCO [AZD4320] (first compound max 1 µM, 7x7, partner max 1 µM) | – | – | – | – | – | – | – | – | – | – | 0.726 | 1 | 0.943 | 0.507 | 0.433 | 0.545 | – | 0.557 | 0.928 | 0.915 |
| Cc1cc2ncnn2cc1Nc1ncc2c(n1)n(C1CCOCC1)c(=O)n2C [AZD7648] + C=CCn1c(=O)c2cnc(Nc3ccc(N4CCN(C)CC4)cc3)nc2n1-c1cccc(C(C)(C)O)n1 [AZD1775] (first compound max 10 µM, partner max 1 µM) | 0.668 | 0.412 | 0.974 | 0.599 | 0.808 | 0.533 | 1 | 0.706 | 0.574 | 0.734 | 0.781 | 0.966 | 0.884 | 0.307 | 0.636 | 0.53 | 0.649 | 0.652 | 0.53 | 0.704 |
| Cc1cc2ncnn2cc1Nc1ncc2c(n1)n(C1CCOCC1)c(=O)n2C [AZD7648] + COc1cc([C@@H]2c3cc4c(cc3[C@@H](O[C@@H]3O[C@@H]5CO[C@@H](C)O[C@H]5[C@H](O)[C@H]3O)[C@H]3COC(=O)[C@H]23)OCO4)cc(OC)c1O [Etoposide] (first compound max 10 µM, 7x7, partner max 10 µM) | 0.699 | 0.546 | 1 | 0.682 | 0.617 | 0.531 | 0.976 | 0.872 | 0.547 | 0.985 | – | – | – | – | – | – | 0.822 | – | – | – |
| CC(=O)c1c(C)c2cnc(Nc3ccc(N4CCNCC4)cn3)nc2n(C2CCCC2)c1=O [Palbociclib] + CN(CC[C@H](CSC1=CC=CC=C1)NC2=C(C=C(C=C2)S(=O)(=O)NC(=O)C3=CC=C(C=C3)N4CCC(CC4)[C@H](C5=CC=CC=C5C6=CC=C(C=C6)Cl)O)S(=O)(=O)C(F)(F)F)CCO [AZD4320] (first compound max 10 µM, 7x7, partner max 1 µM) | – | – | – | – | – | – | – | – | – | – | 0.252 | 1 | 0.866 | 0.289 | 0.117 | 0.25 | – | 0.408 | 0.592 | 0.756 |
| N#Cc1cnc(Nc2cc(NC[C@H]3CNCCO3)c(C(F)(F)F)cn2)cn1 [SRA737] + C=CCn1c(=O)c2cnc(Nc3ccc(N4CCN(C)CC4)cc3)nc2n1-c1cccc(C(C)(C)O)n1 [AZD1775] (first compound max 10 µM, partner max 1 µM) | 0.562 | 0.762 | 1 | 0.603 | 0.912 | 0.495 | 0.993 | 0.726 | 0.114 | 0.824 | – | – | – | – | – | – | 0.88 | – | – | – |
| N#Cc1cnc(Nc2cc(NC[C@H]3CNCCO3)c(C(F)(F)F)cn2)cn1 [SRA737] + CCc1c2c(nc3ccc(O)cc13)-c1cc3c(c(=O)n1C2)COC(=O)[C@]3(O)CC [SN-38] (first compound max 10 µM, 7x7, partner max 0.3 µM) | 0.859 | 0.784 | 1 | 0.682 | 0.938 | 0.696 | 0.99 | 0.878 | 0.313 | 1 | – | – | – | – | – | – | 0.91 | – | – | – |
| N#Cc1cnc(Nc2cc(NC[C@H]3CNCCO3)c(C(F)(F)F)cn2)cn1 [SRA737] + Nc1ccn([C@@H]2O[C@H](CO)[C@@H](O)C2(F)F)c(=O)n1 [Gemcitabine] (first compound max 10 µM, 7x7, partner max 0.3 µM) | 0.881 | 0.685 | 1 | 0.854 | 1 | 0.655 | 1 | 0.892 | 0.19 | 0.956 | – | – | – | – | – | – | 0.72 | – | – | – |
| N#Cc1cnc(Nc2cc(NC[C@H]3CNCCO3)c(C(F)(F)F)cn2)cn1 [SRA737] + O=c1[nH]cc(F)c(=O)[nH]1 [5-Fluorouracil] (first compound max 10 µM, 7x7, partner max 20 µM) | 0.41 | 0.538 | 0.927 | 0.5 | 0.935 | 0.406 | 0.863 | 0.315 | 0.23 | 0.456 | – | – | – | – | – | – | 0.51 | – | – | – |
| C[C@@H](c1ccc2nccn2c1)n1nnc2ncc(-c3cnn(C)c3)nc21 [Savolitinib] + CN(CC[C@H](CSC1=CC=CC=C1)NC2=C(C=C(C=C2)S(=O)(=O)NC(=O)C3=CC=C(C=C3)N4CCC(CC4)[C@H](C5=CC=CC=C5C6=CC=C(C=C6)Cl)O)S(=O)(=O)C(F)(F)F)CCO [AZD4320] (first compound max 1 µM, 7x7, partner max 1 µM) | – | – | – | – | – | – | – | – | – | – | 0.101 | 0.989 | 0.773 | 0.212 | 0.13 | 0.184 | – | 0.753 | 0.346 | 0.305 |
